Test results: patent US20160009693A1, “HERBICIDAL COMPOUNDS” (SYNGENTA LIMITED, priority 2013, published 2016)

How the values were obtained:
Assay type in all cases: in vivo
Conditions in all cases: applied at 1000 g/h, evaluated after 13 days
[1] = test system: Echinochloa crus-galli (ECHCG); test: Herbicidal glasshouse test, pre-emergence, ECHCG
Procedure, shortened: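 Echinochloa crus-galli seeds were sown in standard soil in pots and grown for one day in a glasshouse at 24/16° C. day/night, 14 hours light and 65% humidity. Pre-emergence spraying used an aqueous solution of the active ingredient in acetone/water (50:50) with 0.5% Tween 20. Damage was scored after 13 days on a five point scale.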

[2] = test system: Solanum nigrum (SOLNI); test: Herbicidal glasshouse test, pre-emergence, SOLNI
Procedure, shortened: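 Seeds of Solanum nigrum were sown in pots of standard soil and kept one day in a glasshouse at 24/16° C. day/night, 14 hours light and 65% humidity. For the pre-emergence treatment they were then sprayed with an aqueous solution of the active ingredient formulated in acetone/water (50:50) containing 0.5% Tween 20. Plant damage was rated after 13 days.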

[3] = test system: Solanum nigrum (SOLNI); test: Herbicidal glasshouse test, post-emergence, SOLNI
[4] = test system: Ipomoea hederacea (IPOHE); test: Herbicidal glasshouse test, post-emergence, IPOHE
[5] = test system: Alopecurus myosuroides (ALOMY); test: Herbicidal glasshouse test, pre-emergence, ALOMY
[6] = test system: Setaria faberi (SETFA); test: Herbicidal glasshouse test, post-emergence, SETFA
Procedure, shortened: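 Setaria faberi seeds were sown in standard soil in pots and grown for 8 days in a glasshouse at 24/16° C. day/night, 14 hours light and 65% humidity. The seedlings were then sprayed post-emergence with the active ingredient in acetone/water (50:50) containing 0.5% Tween 20. Afterwards they were kept under the same conditions, watered twice daily, and scored for percentage damage on a five point scale.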

[7] = test system: Echinochloa crus-galli (ECHCG); test: Herbicidal glasshouse test, post-emergence, ECHCG
Procedure, shortened: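 Echinochloa crus-galli (ECHCG) seeds were sown in standard soil in pots and grown for 8 days in a glasshouse at 24/16° C. day/night, 14 hours light and 65% humidity. The young plants were then sprayed post-emergence with the active ingredient in acetone / water (50:50) containing 0.5% Tween 20. Damage was scored after 13 days.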

[8] = test system: Amaranthus retoflexus (AMARE); test: Herbicidal glasshouse test, pre-emergence, AMARE
Procedure, shortened: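 Amaranthus retoflexus seeds were sown in pots of standard soil and kept one day in a glasshouse at 24/16° C. (day/night), 14 hours light and 65% humidity. They were then sprayed pre-emergence with the active ingredient in acetone/water (50:50) containing 0.5% Tween 20. Plants grew under the same conditions, watered twice daily, and percentage damage was scored after 13 days.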

[9] = test system: Ipomoea hederacea (IPOHE); test: Herbicidal glasshouse test, pre-emergence, IPOHE
[10] = test system: Alopecurus myosuroides (ALOMY); test: Herbicidal glasshouse test, post-emergence, ALOMY
[11] = test system: Setaria faberi (SETFA); test: Herbicidal glasshouse test, pre-emergence, SETFA
[12] = test system: Amaranthus retoflexus (AMARE); test: Herbicidal glasshouse test, post-emergence, AMARE
Procedure, shortened: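 Amaranthus retoflexus (AMARE) seeds were sown in pots of standard soil and grown in a glasshouse at 24/16° C. day/night, 14 hours light and 65% humidity for 8 days. The plants were then sprayed post-emergence with an aqueous solution of the active ingredient in acetone/water (50:50) with 0.5% Tween 20. Damage was scored after 13 days.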

| Structure (SMILES) | PRE Application ECHCG, percentage damage (five point scale) [1] | PRE Application SOLNI, percentage damage (five point scale) [2] | POST Application SOLNI, percentage damage (five point scale) [3] | POST Application IPOHE, percentage damage (five point scale) [4] | PRE Application ALOMY, percentage damage (five point scale) [5] | POST Application SETFA, percentage damage (five point scale) [6] | POST Application ECHCG, percentage damage (five point scale) [7] | PRE Application AMARE, percentage damage (five point scale) [8] | PRE Application IPOHE, percentage damage (five point scale) [9] | POST Application ALOMY, percentage damage (five point scale) [10] | PRE Application SETFA, percentage damage (five point scale) [11] | POST Application AMARE, percentage damage (five point scale) [12] |
| --- | --- | --- | --- | --- | --- | --- | --- | --- | --- | --- | --- | --- |
| Cc1cc(Cn2c(=O)c(C(=O)Nc3nnnn3C)nn(C)c2=O)ccc1F [Compound 1.075] | 5 (5=80-100%) | 5 (5=80-100%) | 5 (5=80-100%) | 5 (5=80-100%) | 5 (5=80-100%) | 1 (1=0-19%) | 3 (3=40-59%) | 5 (5=80-100%) | 5 (5=80-100%) | 2 (2=20-39%) | 1 (1=0-19%) | 5 (5=80-100%) |
| Cn1nnnc1NC(=O)c1nn(C)c(=O)n(Cc2ccccc2Cl)c1=O [Compound 1.059] | 5 (5=80-100%) | 5 (5=80-100%) | 5 (5=80-100%) | 5 (5=80-100%) | 5 (5=80-100%) | 4 (4=60-79%) | 4 (4=60-79%) | 5 (5=80-100%) | 5 (5=80-100%) | 5 (5=80-100%) | 2 (2=20-39%) | 5 (5=80-100%) |
| C=CCn1c(=O)c(C(=O)Nc2nnnn2C)nn(C)c1=O [Compound 1.004] | 4 (4=60-79%) | 5 (5=80-100%) | 5 (5=80-100%) | 5 (5=80-100%) | 3 (3=40-59%) | 4 (4=60-79%) | 4 (4=60-79%) | 5 (5=80-100%) | 4 (4=60-79%) | 4 (4=60-79%) | 2 (2=20-39%) | 5 (5=80-100%) |
| Cn1nnnc1NC(=O)c1nn(C)c(=O)n(-c2ccc(F)cc2Cl)c1=O [Compound 1.021] | 5 (5=80-100%) | 5 (5=80-100%) | 5 (5=80-100%) | 5 (5=80-100%) | 5 (5=80-100%) | 5 (5=80-100%) | 5 (5=80-100%) | 5 (5=80-100%) | 5 (5=80-100%) | 5 (5=80-100%) | 5 (5=80-100%) | 5 (5=80-100%) |
| CCCn1nnnc1NC(=O)c1nn(C)c(=O)n(-c2ccc(F)cc2)c1=O [Compound 1.049] | 5 (5=80-100%) | 5 (5=80-100%) | 5 (5=80-100%) | 5 (5=80-100%) | 5 (5=80-100%) | 5 (5=80-100%) | 5 (5=80-100%) | 5 (5=80-100%) | 5 (5=80-100%) | 5 (5=80-100%) | 5 (5=80-100%) | 5 (5=80-100%) |
| CSc1cccc(-n2c(=O)c(C(=O)Nc3nnnn3C)nn(C)c2=O)c1 [Compound 1.043] | 5 (5=80-100%) | 5 (5=80-100%) | 5 (5=80-100%) | 5 (5=80-100%) | 4 (4=60-79%) | 4 (4=60-79%) | 5 (5=80-100%) | 5 (5=80-100%) | 5 (5=80-100%) | 5 (5=80-100%) | 2 (2=20-39%) | 5 (5=80-100%) |
| Cc1cccc(Cn2c(=O)c(C(=O)Nc3nnnn3C)nn(C)c2=O)c1 [Compound 1.052] | 5 (5=80-100%) | 5 (5=80-100%) | 5 (5=80-100%) | 5 (5=80-100%) | 5 (5=80-100%) | 1 (1=0-19%) | 5 (5=80-100%) | 5 (5=80-100%) | 2 (2=20-39%) | 5 (5=80-100%) | 1 (1=0-19%) | 5 (5=80-100%) |
| Cn1nnnc1NC(=O)c1nn(C)c(=O)n(Cc2cccc(F)c2C(F)(F)F)c1=O [Compound 1.076] | 5 (5=80-100%) | 5 (5=80-100%) | 5 (5=80-100%) | 5 (5=80-100%) | 5 (5=80-100%) | 5 (5=80-100%) | 5 (5=80-100%) | 5 (5=80-100%) | 5 (5=80-100%) | 5 (5=80-100%) | 5 (5=80-100%) | 5 (5=80-100%) |
